Measured values reported in ChEMBL document CHEMBL2034960, “Bryonolic acid transcriptional control of anti-inflammatory and antioxidant genes in macrophages in vitro and in vivo” (J Nat Prod, 2012).

System: RAW264.7
Test: Cytotoxicity against mouse RAW264.7 cells at 100 uM after 8 hrs by MTT assay
Format: cell-based
Conditions: raw264.7, 8 h

C=C(C)[C@@H]1CC[C@]2(C(=O)O)CC[C@]3(C)[C@H](CC[C@@H]4[C@@]5(C)CC[C@H](O)C(C)(C)[C@@H]5CC[C@]43C)[C@@H]12 [BETULINIC ACID]
Activity: Toxic
